These results are taken from patent US20140323593A1, “METHODS AND APPARATUS FOR THE CONTROL OF ADENOSINE TRIPHOSPHATE SYNTHASE ACTIVITY WITHIN LIVING ORGANISMS, AND CONDITIONING OF WATER-BASED FLUIDS AND SUBSTANCES USING MAGNETIC FIELD EXPOSURES OR THEIR WITHDRAWAL” (priority 2013, published 2014).

For one assay, the system named is leukemic cell K562. As to the kind of experiment: average reductions in chromosome numbers (karyotype contraction) in K562. Type of assay: cell-based, human. From the text: First, we observed that 5 different cancer cell lines representative of the most common human cancers display a reduction in their chromosome numbers when exposed to 60-Hz MFs (Appendix 1). Reductions in chromosome numbers result from metabolic restriction (Li et al., 2012), which can be caused by impaired ATPS function.
Fourth, Russian physicists (Semikhina and Kiselev, 1981) observed resonances for water at specific frequency-amplitude combinations that are broadened by the presence of even small levels of impurities. They detected one maximum at 156.2-Hz and 15.45 μT for 7° C. pure water (Semikhina et al, 1988). In our experiments compiling average chromosome losses over frequency in anoxic K562 (5% carbon dioxide and 37° C.) 6-day tests at 1 μT, a wide resonance was measured as follows: −3.6±0.79 at 50-Hz, −9.36±1.06 at 60-Hz, −12.71±1.82 at 120-Hz and −9.8±1.31 at 155-Hz. […] The ATPS resonance at […] we documented is indeed wider than that reported by Semikhina for pure water. […]
Our laboratory has detected ATPSI at all tested frequencies and at all MF intensities above 25 nT using measurements of karyotype contraction (see Appendix 1) in numerous cell lines: K562 and HEL (erythro-leukemias). […] In our experiments, ATPSI detected by karyotype contractions varied only weakly with field intensities between 25 nT and 5 μT, but probably cover the range of 10 nT to 879 μT. […]

Assay [1] relates to 60 cancer cell lines maintained by the US National Cancer Institute (NCI-60). Particulars: mean over NCI-60 cell lines; read-out: IC50 (the concentration inhibiting proliferation rate by 50%), mean; cited from earlier work.

pIC50: −log10 of the molar value.

For `CN(C)C(=N)N=C(N)N` [Metformin], the “average reductions in chromosome numbers” value in the assay on leukemic cell K562 (K562, substance alone for 3 days, metformin 0.01 mg/l, resistin 40 ng/l) is 9. Besides, the “average reductions in chromosome numbers (losses) with 1 μT added” value in the assay on leukemic cell K562 (K562, 1 μT magnetic field added to metformin 0.01 mg/l or resistin 40 ng/l, 1 μT alone 7.5) is 11±0.34. Regarding `CC[C@H]1/C=C/C=C/C[C@@H](C)[C@H](O)[C@@](C)(O)C(=O)[C@@H](C)[C@H](O)[C@@H](C)C(=O)[C@@H](C)[C@H](O)[C@@H](C)/C=C/C(=O)O[C@@H]2[C@H](C)[C@H](CC1)O[C@]1(CC[C@H](C)[C@H](C[C@@H](C)O)O1)[C@H]2C` [oligomycin], the pIC50 in assay [1] was 6.52.
